The record followed here is patent publication US20120214840A1, “INDOLIZINE INHIBITORS OF 5-LIPOXYGENASE” (PANMIRA PHARMACEUTICALS, LLC, priority 2009, published 2012).

In general, IC50 refers to the concentration needed to halve the response being measured.

Where two headings read alike, the source gives them in different places.

In the assay the test system is LTB4 in human leukocytes. Briefly: Human Leukocyte LTB4 Inhibition Assay. Format: cell-based. The note with it: human leukocytes stimulated with calcium ionophore, 30 minutes at 37° C., LTB4 by ELISA, read-out: LTB4 HLA IC50. As to the method:
A non-limiting example of a human leukocyte inhibition assay is as follows: Blood was drawn from consenting human volunteers into heparanized tubes and 3% dextran 0.9% saline ⅓ rd volume added. After sedimentation of red blood cells a hypotonic lysis of remaining red blood cells was performed and leukocytes sedimented at 1200 rpm. The pellet was resuspended at 1.25×10^5 cells/ml and aliquoted into wells containing 1 μL 100% DMSO (vehicle) or 2.5 μL drug in 100% DMSO. Samples were incubated for 5 minutes at 37° C. and 2 μL calcium ionophore […] (from a 50 mM DMSO stock diluted just prior to the assay in Hanks balanced salt solution (Invitrogen)) to 1.25 mM) was added, solutions mixed and incubated for 30 minutes at 37° C. Samples were centrifuged at 1,200 rpm (˜200×g) for 10 minutes at 4° C., plasma removed and a 1:4 dilution assayed for LTB4 concentration using ELISA (Assay Designs). Drug concentrations to achieve 50% inhibition (IC50's) of vehicle LTB4 were determined by nonlinear regression (Graphpad Prism) of % inhibition versus log drug concentration.
In general terms: An ELISA detects its analyte on a solid surface through an enzyme-linked reagent.

`CCC(O)(c1cn(Cc2ccc3c(-c4ccc(F)cc4)c(C(N)=O)cn3c2)nn1)C(F)(F)F` (single isomer, unassigned; enantiomer a) [Compound 1-5, 1-(4-Fluoro-phenyl)-6-[4-(1-hydroxy-1-trifluoromethyl-propyl)-[1,2,3]triazol-1-ylmethyl]-indolizine-2-carboxylic acid amide (Enantiomer A)]: the IC50 (Leukocyte, 0.5 h) was under 300 nM.
For `CCC(O)(c1cn(Cc2ccc3c(-c4ccc(F)cc4)c(C(N)=O)cn3c2)nn1)C(F)(F)F` (single isomer, unassigned; enantiomer b) [Compound 1-6, 1-(4-Fluoro-phenyl)-6-[4-(1-hydroxy-1-trifluoromethyl-propyl)-[1,2,3]triazol-1-ylmethyl]-indolizine-2-carboxylic acid amide (Enantiomer B)], the IC50 was under 300 nM.
For the compound `CCOC(=O)c1cn2cc(Cn3cc(C(O)(CC)C(F)(F)F)nn3)ccc2c1-c1ccc(F)cc1` (centres unmarked) [Compound 1-1, 1-(4-Fluoro-phenyl)-6-[4-(1-hydroxy-1-trifluoromethyl-propyl)-[1,2,3]-triazol-1-ylmethyl]-indolizine-2-carboxylic acid ethyl ester], the IC50 (Leukocyte, 0.5 h) is under 300 nM.
As for `CCC(O)(c1cn(Cc2ccc3c(-c4ccc(F)cc4)c(C(N)=O)cn3c2)nn1)C(F)(F)F` (centres unmarked) [Compound 1-2, 1-(4-Fluoro-phenyl)-6-[4-(1-hydroxy-1-trifluoromethyl-propyl)-[1,2,3]triazol-1-ylmethyl]-indolizine-2-carboxylic acid amide], the IC50 (Leukocyte, 0.5 h) was under 300 nM.
As to `CCC(O)(c1cn(Cc2ccc3c(-c4ccc(F)cc4)c(C#N)cn3c2)nn1)C(F)(F)F` (centres unmarked) [Compound 1-3, 1-(4-Fluoro-phenyl)-6-[4-(1-hydroxy-1-trifluoromethyl-propyl)-[1,2,3]triazol-1-ylmethyl]-indolizine-2-carbonitrile], under “Leukocyte, 0.5 h”, the IC50 is under 300 nM.
As for `CCOC(=O)c1cn2cc(CNc3nnc(C(O)(CC)C(F)(F)F)o3)ccc2c1-c1ccc(F)cc1` (centres unmarked) [Compound 1-4, 1-(4-Fluoro-phenyl)-6-{[5-(1-hydroxy-1-trifluoromethyl-propyl)-[1,3,4]oxadiazol-2-ylamino]-methyl}-indolizine-2-carboxylic acid ethyl ester], the IC50 (Leukocyte, 0.5 h) was under 300 nM.
As to `C=C(C)c1c(C(=O)OCC)cn2cc(Cn3cc(C(O)(CC)C(F)(F)F)nn3)ccc12` (centres unmarked) [Compound 1-7, 6-[4-(1-Hydroxy-1-trifluoromethyl-propyl)-[1,2,3]triazol-1-ylmethyl]-1-isopropenyl-indolizine-2-carboxylic acid ethyl ester], the IC50 (Leukocyte, 0.5 h) is under 300 nM.
`CCOC(=O)c1cn2cc(Cn3cc(C(O)(CC)C(F)(F)F)nn3)ccc2c1C(C)C` (centres unmarked) [Compound 1-8, 6-[4-(1-Hydroxy-1-trifluoromethyl-propyl)-[1,2,3]triazol-1-ylmethyl]-1-isopropyl-indolizine-2-carboxylic acid ethyl ester]: the IC50 (Leukocyte, 0.5 h) is under 300 nM.
For `CCC(O)(c1cn(Cc2ccc3c(C(C)C)c(C(N)=O)cn3c2)nn1)C(F)(F)F` (centres unmarked) [Compound 1-9, 6-[4-(1-Hydroxy-1-trifluoromethyl-propyl)-[1,2,3]triazol-1-ylmethyl]-1-isopropyl-indolizine-2-carboxylic acid amide], the IC50 (Leukocyte, 0.5 h) is over 1000 nM.
Turning to `CCC(O)(c1cn(Cc2ccc3c(C(C)C)c(C#N)cn3c2)nn1)C(F)(F)F` (centres unmarked) [Compound 1-10, 6-[4-(1-Hydroxy-1-trifluoromethyl-propyl)-[1,2,3]triazol-1-ylmethyl]-1-isopropyl-indolizine-2-carbonitrile], the IC50 (Leukocyte, 0.5 h) is under 300 nM.
On to `CCC(O)(c1cn(Cc2ccc3c(-c4ccc(F)cc4)c(C#N)nn3c2)nn1)C(F)(F)F` (centres unmarked) [Compound 1-11, 3-(4-Fluoro-phenyl)-6-[4-(1-hydroxy-1-trifluoromethyl-propyl)-[1,2,3]triazol-1-ylmethyl]-pyrazolo[1,5-a]pyridine-2-carbonitrile], for which the IC50 (Leukocyte, 0.5 h) is under 300 nM.
As to `CCC(O)(c1cn(Cc2ccc3c(-c4ccc(F)cc4)c(C(N)=O)nn3c2)nn1)C(F)(F)F` (centres unmarked) [Compound 1-12, 3-(4-Fluoro-phenyl)-6-[4-(1-hydroxy-1-trifluoromethyl-propyl)-[1,2,3]-triazol-1-ylmethyl]-pyrazolo[1,5-a]pyridine-2-carboxylic acid amide], where the note is “Leukocyte, 0.5 h”, the IC50 is under 300 nM.
Regarding `CCOC(=O)c1cn2cc(Cn3cc(C(O)(CC)C(F)(F)F)nn3)ccc2c1-c1ccc(OC)nc1` (centres unmarked) [Compound 1-13, 6-[4-(1-Hydroxy-1-trifluoromethyl-propyl)-[1,2,3]triazol-1-ylmethyl]-1-(6-methoxy-pyridin-3-yl)-indolizine-2-carboxylic acid ethyl ester], for the setting “Leukocyte, 0.5 h”, the IC50 is under 300 nM.
Take `CCC(O)(c1cn(Cc2ccc3c(-c4ccc(OC)nc4)c(C(N)=O)cn3c2)nn1)C(F)(F)F` (centres unmarked) [Compound 1-14, 6-[4-(1-Hydroxy-1-trifluoromethyl-propyl)-[1,2,3]triazol-1-ylmethyl]-1-(6-methoxy-pyridin-3-yl)-indolizine-2-carboxylic acid amide]: the IC50 (Leukocyte, 0.5 h) was under 300 nM.
